Calls of active or inactive are those of the source. The rule behind the calls is not given here.
How the values were obtained:
Staphylococcus aureus [1] = assay: Antibacterial activity against methicillin-resistant Staphylococcus aureus ATCC 33591 infected in Kunming mouse assessed as reduction in bacterial load in liver at 5 to 10 mg/kg, ip for 2 days starting from 1 hr post-infection by hematoxylin-eosin staining based analysis; type: functional, organism-based; conditions: dose 5-10 mg/kg, time 2.0 day
Staphylococcus aureus [2] = assay: Antibacterial activity against methicillin-resistant Staphylococcus aureus ATCC 33591 assessed as inhibition of bacterial growth incubated for 24 hrs by broth microdilution method; type: functional
Staphylococcus aureus [3] = assay: Antibacterial activity against methicillin-resistant Staphylococcus aureus ATCC 43300 assessed as inhibition of bacterial growth incubated for 24 hrs by broth microdilution method; type: functional
[4] = system: Staphylococcus epidermidis; assay: Antibacterial activity against methicillin-resistant Staphylococcus epidermidis ATCC 51625 assessed as inhibition of bacterial growth incubated for 24 hrs by broth microdilution method; type: functional
Acinetobacter baumannii [5] = assay: Antibacterial activity against Acinetobacter baumannii ATCC 19606 assessed as inhibition of bacterial growth incubated for 24 hrs by broth microdilution method; type: functional
Staphylococcus aureus [6] = assay: Antibacterial activity against methicillin-resistant Staphylococcus aureus 206 assessed as inhibition of bacterial growth incubated for 24 hrs by broth microdilution method; type: functional
Acinetobacter baumannii [7] = assay: Antibacterial activity against carbapenem-resistant Acinetobacter baumannii 882 assessed as inhibition of bacterial growth incubated for 24 hrs by broth microdilution method; type: functional
[8] = system: Mesomycoplasma hyopneumoniae; assay: Anti-mycoplasma activity against Mycoplasma hyopneumoniae LH assessed as inhibition of mycoplasma growth measured after 7 days by broth microdilution method; type: functional; conditions: 168 h, time 7 day
Metamycoplasma hominis = assay: Anti-mycoplasma activity against Mycoplasma hominis PG-21 ATCC23114 assessed as inhibition of mycoplasma growth measured after 7 days by broth microdilution method; type: functional; conditions: PG-21 ATCC23114, 168 h, time 7 day
Staphylococcus aureus [9] = assay: Bactericidal activity against methicillin-resistant Staphylococcus aureus ATCC 33591 assessed as reduction in bacterial colonies formation at MIC incubated for 24 hrs in MHB followed by culturing on agar plate for 24 hrs by time-kill kinetics based analysis; type: functional; conditions: time 48 hrs
Escherichia coli [10] = assay: Bactericidal activity against Escherichia coli ATCC 25922 assessed as reduction in bacterial colonies formation at MIC incubated for 24 hrs in MHB followed by culturing on agar plate for 24 hrs by time-kill kinetics based analysis; type: functional; conditions: time 48 hrs
Staphylococcus aureus [11] = assay: Bactericidal activity against methicillin-resistant Staphylococcus aureus ATCC 33591 assessed as reduction in bacterial colonies formation at 2XMIC incubated for 12 hrs in MHB followed by culturing on agar plate for 24 hrs by time-kill kinetics based analysis; type: functional; set-up: scale not given: the % may be the effect or the level left; conditions: time 36 hrs
Staphylococcus aureus [12] = assay: Bactericidal activity against methicillin-resistant Staphylococcus aureus ATCC 33591 assessed as reduction in bacterial colonies formation at 4XMIC incubated for 8 hrs in MHB followed by culturing on agar plate for 24 hrs by time-kill kinetics based analysis; type: functional; set-up: scale not given: the % may be the effect or the level left; conditions: time 32 hrs
Escherichia coli [13] = assay: Bactericidal activity against Escherichia coli ATCC 25922 assessed as reduction in bacterial colonies formation at 4XMIC incubated for 4 hrs in MHB followed by culturing on agar plate for 24 hrs by time-kill kinetics based analysis; type: functional; set-up: scale not given: the % may be the effect or the level left; conditions: time 28 hrs
[14] = Cytotoxicity against human A549 cells assessed as reduction in cell viability measured after 48 hrs by CCK8 assay; type: toxicity, cell-based
Escherichia coli [15] = assay: Disruption of biofilm formation in Escherichia coli ATCC 25922 assessed as inhibition of biofilm formation at MIC measured after 24 hrs by crystal violet staining based analysis; type: functional
Escherichia coli [16] = assay: Disruption of biofilm formation in Escherichia coli ATCC 25922 assessed as inhibition of biofilm formation at 4XMIC measured after 24 hrs by crystal violet staining based analysis; type: functional
Cell membrane [17] = assay: Disruption of bacterial cell membrane in Escherichia coli ATCC 25922 assessed as increase in fluorescence intensity by DiBAC4(3) dye based fluorescence analysis; type: subcellular
Cell membrane [18] = assay: Disruption of bacterial cell membrane in Escherichia coli ATCC 25922 assessed as increase in fluorescence intensity at 8XMIC measured within 3 mins by DiBAC4(3) dye based fluorescence analysis relative to control
Cell membrane [19] = assay: Disruption of bacterial cell membrane in Escherichia coli ATCC 25922 assessed as increase in red fluorescence intensity at MIC incubated for 2 hrs by MycoLightGreen1198/PI staining based confocal laser scanning microscopy
Cell membrane [20] = assay: Disruption of bacterial cell membrane in methicillin-resistant Staphylococcus aureus ATCC 33591 assessed as increase in red fluorescence intensity at 4XMIC incubated for 2 hrs by MycoLightGreen1198/PI staining based confocal laser scanning microscopy; type: subcellular
Cell membrane [21] = assay: Disruption of bacterial cell membrane in Escherichia coli ATCC 25922 assessed as increase in red fluorescence intensity at 4XMIC incubated for 2 hrs by MycoLightGreen1198/PI staining based confocal laser scanning microscopy
Cell membrane [22] = assay: Disruption of bacterial cell membrane in Escherichia coli ATCC 25922 assessed as severe depression on the cell surface,cell rupture and leakage of intracellular components at 4XMIC incubated for 4 hrs by FESEM analysis; type: subcellular
Staphylococcus aureus [23] = assay: Antibacterial activity against methicillin-resistant Staphylococcus aureus ATCC 33591 infected in ip dosed Kunming mouse assessed as protection against bacterial infection administered for 7 days starting from 1 hr post-infection; type: functional
Staphylococcus aureus [24] = assay: Antibacterial activity against methicillin-resistant Staphylococcus aureus ATCC 33591 infected in Kunming mouse assessed as animal survival rate at 3 mg/kg, ip for 7 days starting from 1 hr post-infection; type: functional; conditions: ATCC 33591, 168 h, time 7 day
Staphylococcus aureus [25] = assay: Antibacterial activity against methicillin-resistant Staphylococcus aureus ATCC 33591 infected in Kunming mouse assessed as animal survival rate at 5 mg/kg, ip for 7 days starting from 1 hr post-infection; type: functional; conditions: ATCC 33591, 168 h, time 7 day
Staphylococcus aureus [26] = assay: Antibacterial activity against methicillin-resistant Staphylococcus aureus ATCC 33591 infected in Kunming mouse assessed as reduction in number of inflammatory cells in liver at 10 mg/kg, ip for 2 days starting from 1 hr post-infection by hematoxylin-eosin staining based analysis; type: functional, organism-based; conditions: time 2.0 day
[27] = Metabolic stability in Sprague-Dawley rat assessed as parent compound remaining at 3 mg/kg, po measured after 10 mins by LC-MS analysis; type: ADME, organism-based; conditions: in vivo, read-out: Stability
[28] = Half-life in Sprague-Dawley rat at 1 mg/kg, iv by LC-MS analysis; type: ADME, organism-based; conditions: in vivo
[29] = AUC(0 to t) in Sprague-Dawley rat at 1 mg/kg, iv by LC-MS analysis; type: ADME, organism-based; set-up: dose 1 mg/kg, route iv; conditions: in vivo
[30] = MRT in Sprague-Dawley rat at 1 mg/kg, iv by LC-MS analysis; type: ADME, organism-based; conditions: in vivo
[31] = Clearance in Sprague-Dawley rat at 1 mg/kg, iv by LC-MS analysis; type: ADME, organism-based; conditions: in vivo
[32] = Drug metabolism in Sprague-Dawley rat plasma assessed as metabolite formation at 10 mg/kg, iv measured after 1 hr by UPLC/Q-TOF-MS analysis; type: ADME, organism-based; conditions: in vivo
Staphylococcus aureus [33] = assay: Potency index, ratio of moxifloxacin MIC to test compound MIC for antibacterial activity against methicillin-resistant Staphylococcus aureus 171; type: functional

SMILES: C=C[C@]1(C)C[C@@H](OC(=O)CSc2nc(-c3cc[n+](Cc4ccc(C)cc4)cc3)cs2)[C@]2(C)[C@H](C)CC[C@]3(CCC(=O)[C@H]32)[C@@H](C)[C@@H]1O.[Br-]
- Activity (Staphylococcus aureus [1]): Active
- MIC (Staphylococcus aureus [2]): 1 µg/mL
- MIC (Staphylococcus aureus [3]): 0.5 µg/mL
- MIC [4]: 1 µg/mL
- MIC (Acinetobacter baumannii [5]): 1 µg/mL
- MIC (Staphylococcus aureus [6]): 2 µg/mL
- MIC (Acinetobacter baumannii [7]): 8 µg/mL
- MIC [8]: 0.002 µg/mL
- MIC (Metamycoplasma hominis): 0.015 µg/mL
- Activity (Staphylococcus aureus [9]): 4.5 log10CFU/ml
- Activity (Escherichia coli [10]): 6.98 log10CFU/ml
- Activity (Staphylococcus aureus [11]): 100%
- Activity (Staphylococcus aureus [12]): 100%
- Activity (Escherichia coli [13]): 100%
- CC50 at 48 h [14]: > 100 µM
- inhibition (INH) (Escherichia coli [15]): 59.04%
- inhibition (INH) (Escherichia coli [16]): 84.02%
- Activity (Cell membrane [17]): Dose-Dependent Effect
- fold change (FC) (Cell membrane [18]): 6
- Activity (Cell membrane [19]): Active
- Activity (Cell membrane [20]): 100%
- Activity (Cell membrane [21]): 100%
- Activity (Cell membrane [22]): Active
- ED50 (Staphylococcus aureus [23]; ATCC 33591, 168 h, time 7 day): 4.94 mg/kg
- Activity (Staphylococcus aureus [23]; time 7.0 day): Dose-Dependent Effect
- survival at 3 mg/kg (Staphylococcus aureus [24]): 42.9%
- survival at 5 mg/kg (Staphylococcus aureus [25]): 57.1%
- Activity (Staphylococcus aureus [26]): Active
- remaining at 10 min [27]: 0%
- half-life [28]: 43.8 min
- AUC(0-t) [29]: 539 ng·h/mL
- MRT [30]: 34.8 min
- clearance [31]: 31.7 mL/min/kg
- Drug metabolism [32]: Metabolite_Detected
- Ratio (Staphylococcus aureus [33]): 8
